Experiments:
Experiment in all cases: standardised AUC of viability dose-response curve (72 h) (fraction (0-1)); higher = less growth inhibition (more resistant)
SW872 = tested on: SW872
Method in brief: (§1)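 In 384-well plates, sarcoma cell lines were exposed for 72 h, in triplicate, to 2.5 µl of a 1:3 compound dilution series whose compound-plate concentrations ran from 10 mM to 0.0002 mM. Four-parameter log-logistic models were fitted per drug and cell line to ATPLite viability, scaled 1 (full) to 0 (none). From these fits, a modified drexplorer computeAUC gave the standardised area under the curve in log-dose space. Here 1 marks no response and 0 full response.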

KHOS-240S = tested on: KHOS-240S
Method in brief: as §1

VA-ES-BJ = tested on: VA-ES-BJ
Method in brief: as §1

SW982 = tested on: SW982
Method in brief: as §1

SW1353 = tested on: SW1353
Method in brief: as §1

SW684 = tested on: SW684
Method in brief: as §1

HS729 = tested on: HS729
Method in brief: as §1

RD-ES = tested on: RD-ES
Method in brief: as §1

SYO-1 = tested on: SYO-1
Method in brief: as §1

HT1080 = tested on: HT1080
Method in brief: as §1

KHOS-NP = tested on: KHOS-NP
Method in brief: as §1

RD = tested on: RD
Method in brief: as §1

A204 = tested on: A204
Method in brief: as §1

SK-LMS-1 = tested on: SK-LMS-1
Method in brief: as §1

SK-ES-1 = tested on: SK-ES-1
Method in brief: as §1

G401 = tested on: G401
Method in brief: as §1

MES-SA = tested on: MES-SA
Method in brief: as §1

SMILES	standardised AUC (SW872)	standardised AUC (KHOS-240S)	standardised AUC (VA-ES-BJ)	standardised AUC (SW982)	standardised AUC (SW1353)	standardised AUC (SW684)	standardised AUC (HS729)	standardised AUC (RD-ES)	standardised AUC (SYO-1)	standardised AUC (HT1080)	standardised AUC (KHOS-NP)	standardised AUC (RD)	standardised AUC (A204)	standardised AUC (SK-LMS-1)	standardised AUC (SK-ES-1)	standardised AUC (G401)	standardised AUC (MES-SA)
CCN1CCN(Cc2ccc(Nc3ncc(F)c(-c4cc(F)c5nc(C)n(C(C)C)c5c4)n3)nc2)CC1 [ABEMACICLIB]	0.872	0.856	0.804	0.734	0.88	0.901	0.966	0.734	0.715	0.993	0.95	0.97	0.746	0.938	0.631	0.855	0.805
CCc1cc2c(cc1N1CCC(N3CCOCC3)CC1)C(C)(C)c1[nH]c3cc(C#N)ccc3c1C2=O [ALECTINIB]	1	0.967	0.949	0.989	1	1	1	1	1	0.991	0.989	0.99	1	0.985	0.993	0.997	1
Cc1nc(NC(=O)N2CCC[C@H]2C(N)=O)sc1-c1ccnc(C(C)(C)C(F)(F)F)c1 [ALPELISIB]	0.819	0.895	0.852	0.935	0.909	0.887	0.78	0.793	0.814	0.963	0.964	0.86	0.848	0.867	0.799	0.845	0.818
Cn1cc(-c2cc3c(N4CCN(c5ncc([C@@](C)(N)c6ccc(F)cc6)cn5)CC4)ncnn3c2)cn1 [AVAPRITINIB]	0.946	0.927	0.972	0.948	0.927	0.977	0.941	0.956	0.745	0.971	0.917	0.978	0.727	0.954	0.953	0.913	0.937
CC(C)NC(=O)C1CCC(n2c(NC(=O)c3ccc(F)cc3)nc3ccc(CN4CCC(C(C)(C)O)CC4)cc32)CC1 (stereo not drawn) [BELIZATINIB]	0.82	0.844	0.835	0.762	0.897	0.925	0.838	0.791	0.827	0.952	0.973	0.788	0.922	0.926	0.749	0.829	0.901
Cn1cnc2c(F)c(Nc3ccc(Br)cc3F)c(C(=O)NOCCO)cc21 [BINIMETINIB]	0.741	0.89	0.895	0.89	0.838	0.917	0.887	0.978	0.922	0.756	0.773	0.736	0.936	0.727	0.933	0.869	0.905
Nc1cc(C(F)(F)F)c(-c2cc(N3CCOCC3)nc(N3CCOCC3)n2)cn1 [BUPARLISIB]	0.809	0.829	0.762	0.79	0.85	0.823	0.815	0.769	0.791	0.862	0.887	0.785	0.754	0.75	0.742	0.823	0.753
CNC(=O)c1ccc(-c2cnc3ncc(Cc4ccc5ncccc5c4)n3n2)cc1F [CAPMATINIB]	0.989	0.986	0.873	0.985	1	0.958	0.989	1	1	0.976	0.998	0.995	0.971	0.68	1	0.973	0.982
COc1cc2c(Oc3ccc4[nH]c(C)cc4c3F)ncnc2cc1OCCCN1CCCC1 [CEDIRANIB]	0.986	0.939	1	0.959	0.922	0.995	0.929	0.987	0.743	0.996	0.98	0.966	0.622	0.966	0.917	0.797	0.91
COc1c(OCCCN2CCOCC2)ccc2c1N=C(NC(=O)c1cnc(N)nc1)N1CCN=C21 [COPANLISIB]	0.541	0.693	0.568	0.609	0.675	0.569	0.583	0.472	0.655	0.83	0.802	0.556	0.516	0.617	0.483	0.654	0.474
CN1CCN(c2ccc3nc(-c4c(N)c5c(F)cccc5[nH]c4=O)[nH]c3c2)CC1 [DOVITINIB]	0.823	0.81	0.865	0.792	0.86	0.902	0.821	0.82	0.717	0.906	0.917	0.904	0.748	0.904	0.749	0.833	0.81
COc1cccc2c1C(=O)c1c(O)c3c(c(O)c1C2=O)C[C@@](O)(C(=O)CO)C[C@@H]3O[C@H]1C[C@H](N)[C@H](O)[C@H](C)O1 [DOXORUBICIN]	0.655	0.588	0.574	0.537	0.669	0.796	0.638	0.472	0.47	0.6	0.694	0.609	0.532	0.672	0.439	0.577	0.496
Cc1cnc(Nc2ccc(OCCN3CCCC3)cc2)nc1Nc1cccc(S(=O)(=O)NC(C)(C)C)c1 [FEDRATINIB]	0.754	0.766	0.768	0.677	0.779	0.825	0.756	0.733	0.685	0.86	0.886	0.763	0.746	0.847	0.691	0.784	0.756
C=CC(=O)N1CCC[C@@H](n2nc(-c3ccc(Oc4ccccc4)cc3)c3c(N)ncnc32)C1 [IBRUTINIB]	0.934	0.954	0.995	0.992	0.85	0.997	0.941	0.994	0.892	1	0.966	0.997	0.967	0.978	0.991	0.973	0.948
CC[C@H](Nc1ncnc2[nH]cnc12)c1nc2cccc(F)c2c(=O)n1-c1ccccc1 [IDELALISIB]	0.937	0.968	0.934	0.971	0.897	0.761	0.905	0.968	0.949	0.99	0.978	0.982	0.939	0.919	0.963	0.931	0.957
O=C(Nc1cnn2ccc(N3CCC[C@@H]3c3cc(F)ccc3F)nc12)N1CC[C@H](O)C1 [LAROTRECTINIB]	0.953	0.988	0.969	0.996	0.936	0.985	0.886	0.994	0.92	0.996	0.969	0.995	0.992	0.961	0.982	0.98	0.982
Cc1ccc(F)c(NC(=O)Nc2ccc(-c3cccc4[nH]nc(N)c34)cc2)c1 [LINIFANIB]	0.972	0.983	1	1	0.993	0.996	0.884	0.994	0.879	0.994	0.955	1	0.74	1	0.964	0.948	0.973
C[C@]1(O)C[C@@H](c2nc(-c3ccc4ccc(-c5ccccc5)nc4c3)c3c(N)nccn32)C1 [LINSITINIB]	0.936	0.915	0.936	0.9	0.979	0.965	0.776	0.73	0.876	0.954	0.973	0.836	0.922	0.973	0.708	0.817	0.952
Cc1ccc(NC(=O)c2ccc(CN3CCN(C)CC3)cc2)cc1Nc1nc(-c2cccnc2)cs1 [MASITINIB]	0.874	0.853	0.897	0.876	0.857	0.873	0.884	0.871	0.749	0.902	0.89	0.902	0.702	0.907	0.881	0.848	0.869
CC1(C)CNc2cc(NC(=O)c3cccnc3NCc3ccncc3)ccc21 [MOTESANIB]	0.978	0.97	1	0.997	0.975	0.95	0.944	0.994	0.866	0.981	0.975	1	0.756	0.983	0.991	0.957	0.995
CC(C)N1CCN(Cc2cnc(-c3cc(-c4cccc5[nH]ccc45)cc4[nH]ncc34)o2)CC1 [NEMIRALISIB]	0.919	0.944	0.952	0.916	0.917	0.726	0.906	0.95	0.916	0.996	0.998	0.924	0.908	0.944	0.935	0.947	0.95
C=CC(=O)Nc1cccc(Oc2nc(Nc3ccc(N4CCN(C)CC4)cc3)nc3ccsc23)c1 [OLMUTINIB]	0.964	0.954	0.939	0.907	0.918	0.899	0.931	0.982	0.923	0.951	0.993	0.951	0.98	0.927	0.936	0.964	0.945
CC(C)(C)c1cc(NC(=O)Nc2ccc(-c3cn4c(n3)sc3cc(OCCN5CCOCC5)ccc34)cc2)no1 [QUIZARTINIB]	0.986	0.954	0.976	0.992	0.978	0.966	0.939	0.989	0.879	0.964	0.964	0.977	0.745	0.94	0.924	0.958	0.93
CNC(=O)c1cc(Oc2ccc(NC(=O)Nc3ccc(Cl)c(C(F)(F)F)c3)c(F)c2)ccn1 [REGORAFENIB]	0.93	0.936	0.977	0.96	0.958	0.992	0.873	0.974	0.816	0.96	0.856	0.91	0.768	0.904	0.943	0.874	0.934
